Our source for the EC50 values is patent US20220195066A1, “ANTI-CEA IMMUNOCONJUGATES, AND USES THEREOF” (BOLT BIOTHERAPEUTICS, INC., priority 2020, published 2022).

One test concerns the target T1, human TLR7 (Homo sapiens, UniProt Q9NYK1).
T1 construct: host or cells: HEK293 NF-kB reporter cells
T1 sequence (Q9NYK1 27-1049): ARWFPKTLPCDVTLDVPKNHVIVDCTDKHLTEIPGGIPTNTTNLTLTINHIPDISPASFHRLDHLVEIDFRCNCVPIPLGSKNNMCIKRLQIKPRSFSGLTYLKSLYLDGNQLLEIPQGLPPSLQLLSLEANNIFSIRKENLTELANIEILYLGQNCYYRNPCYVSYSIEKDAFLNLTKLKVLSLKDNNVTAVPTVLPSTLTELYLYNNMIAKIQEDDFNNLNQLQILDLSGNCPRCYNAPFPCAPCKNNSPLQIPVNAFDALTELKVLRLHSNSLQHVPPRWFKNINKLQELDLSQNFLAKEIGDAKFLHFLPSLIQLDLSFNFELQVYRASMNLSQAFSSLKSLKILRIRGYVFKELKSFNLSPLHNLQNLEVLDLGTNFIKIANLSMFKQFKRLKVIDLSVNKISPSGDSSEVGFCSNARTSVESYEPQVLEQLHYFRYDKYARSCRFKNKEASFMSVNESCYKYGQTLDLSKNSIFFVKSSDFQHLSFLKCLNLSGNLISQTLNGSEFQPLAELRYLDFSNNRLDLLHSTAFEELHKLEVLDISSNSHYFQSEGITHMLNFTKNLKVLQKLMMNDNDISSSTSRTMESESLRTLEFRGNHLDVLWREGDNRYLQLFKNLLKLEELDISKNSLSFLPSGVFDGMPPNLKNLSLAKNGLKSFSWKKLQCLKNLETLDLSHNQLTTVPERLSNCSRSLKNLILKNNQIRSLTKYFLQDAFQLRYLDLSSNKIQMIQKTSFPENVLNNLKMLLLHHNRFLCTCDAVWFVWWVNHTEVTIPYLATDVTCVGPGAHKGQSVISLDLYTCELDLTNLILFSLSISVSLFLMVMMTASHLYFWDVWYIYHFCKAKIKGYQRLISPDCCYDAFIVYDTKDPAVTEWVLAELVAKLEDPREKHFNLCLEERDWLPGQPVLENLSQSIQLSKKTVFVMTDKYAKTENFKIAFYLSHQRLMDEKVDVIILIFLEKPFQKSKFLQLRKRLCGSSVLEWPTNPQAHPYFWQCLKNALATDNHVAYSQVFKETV
Put plainly: HEK Reporter Assay, HEK293 NFKB reporter cells expressing human TLR7. Type of test: cell-based. Conditions: read-out: HEK293 hTLR7 EC50. How it is done:
(§1) Each compound was synthesized, purified, and characterized by mass spectrometry and shown to have the mass indicated. Additional experimental procedures are found in the Examples. Activity against Human Embryonic Kidney (HEK) 293 NFKB reporter cells expressing human TLR7 or human TLR8 was measured according to Example 202.
(§2) Human Embryonic Kidney (HEK293) reporter cells expressing human TLR7 or human TLR8 (InvivoGen, San Diego Calif.), were used with vendor protocols for cellular propagation and experimentation. Briefly, cells were grown to 80-85% confluence at 5% CO2 in DMEM supplemented with 10% FBS, ZEOCIN™, and Blasticidin. Cells were then seeded in 96-well flat plates at 4×10^4 cells/well with substrate containing HEK detection medium and immunostimulatory molecules.
A general note: A reporter such as luciferase makes a cellular process visible.

A further test deals with T2, human TLR8 (Homo sapiens, UniProt Q9NR97).
T2 construct: host or cells: HEK293 NF-kB reporter cells
T2 sequence (Q9NR97 27-1041): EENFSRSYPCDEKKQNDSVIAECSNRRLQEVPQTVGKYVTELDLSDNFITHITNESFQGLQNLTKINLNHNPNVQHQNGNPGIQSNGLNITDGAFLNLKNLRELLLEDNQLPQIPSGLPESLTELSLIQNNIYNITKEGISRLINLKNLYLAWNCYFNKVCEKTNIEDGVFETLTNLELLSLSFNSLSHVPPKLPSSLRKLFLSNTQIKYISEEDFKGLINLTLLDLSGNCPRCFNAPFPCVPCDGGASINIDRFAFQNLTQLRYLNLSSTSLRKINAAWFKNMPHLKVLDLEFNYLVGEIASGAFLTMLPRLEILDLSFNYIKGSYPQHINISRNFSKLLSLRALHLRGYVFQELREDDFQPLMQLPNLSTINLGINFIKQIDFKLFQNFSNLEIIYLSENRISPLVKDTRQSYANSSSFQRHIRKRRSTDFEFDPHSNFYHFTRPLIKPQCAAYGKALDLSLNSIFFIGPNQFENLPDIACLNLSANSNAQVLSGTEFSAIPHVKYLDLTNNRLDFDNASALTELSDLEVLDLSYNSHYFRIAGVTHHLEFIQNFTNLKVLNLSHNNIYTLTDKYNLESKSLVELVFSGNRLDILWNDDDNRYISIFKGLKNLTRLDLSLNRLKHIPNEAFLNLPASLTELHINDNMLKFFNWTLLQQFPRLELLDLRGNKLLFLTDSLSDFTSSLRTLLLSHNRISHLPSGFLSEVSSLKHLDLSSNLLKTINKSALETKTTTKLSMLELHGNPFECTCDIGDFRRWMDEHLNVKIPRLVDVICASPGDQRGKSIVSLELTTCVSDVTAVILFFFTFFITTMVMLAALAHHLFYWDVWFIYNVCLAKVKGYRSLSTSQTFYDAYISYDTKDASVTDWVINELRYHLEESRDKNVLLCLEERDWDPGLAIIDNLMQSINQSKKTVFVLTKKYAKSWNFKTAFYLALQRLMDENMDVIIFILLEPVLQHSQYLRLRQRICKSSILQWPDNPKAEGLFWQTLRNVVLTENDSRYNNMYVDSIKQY
The experiment in a line: HEK Reporter Assay, HEK293 NFKB reporter cells expressing human TLR8. In kind it is cell-based. Conditions: read-out: HEK293 hTLR8 EC50. Here is the method:
as §1, §2

As to `CCCN(CCCNC(=O)OC1CCC1)C(=O)C1=Cc2ccc(-c3cncc(CN)c3)cc2N=C(N)C1` [HxBz-40], the figures for the EC50 at human TLR7 and on human TLR8 were 357 nM and 755 nM, respectively.
On the same counts, the results for `CCCN(CCCNC(=O)OC1CCC1)C(=O)C1=Cc2ccc(-c3ccc(CN)nc3)cc2N=C(N)C1` [HxBz-38] are 56 nM and 153 nM.
For `CCCN(OCc1ccn[nH]1)C(=O)C1=Cc2ccc(-c3cnc(CN)nc3)cc2N=C(N)C1` [HxBz-41, 2-amino-8-[2-(aminomethyl)pyrimidin-5-yl]-N-propyl-N-(1H-pyrazol-5-ylmethoxy)-3H-1-benzazepine-4-carboxamide], in that order: 3930 nM and 128 nM.
For `CCCN(OCC)C(=O)C1=Cc2ccc(-c3cnc(C(=O)OC)nc3)cc2N=C(N)C1` [HxBz-11, methyl 5-(2-amino-4-(ethoxy(propyl)carbamoyl)-3H-benzo[b]azepin-8-yl)pyrimidine-2-carboxylate], in that order: 4070 nM and 161 nM.
Consider `CCCN(OCC)C(=O)C1=Cc2ccc(-c3cnc(CN)nc3)cc2N=C(N)C1` [HxBz-5, 2-amino-8-[2-(aminomethyl)pyrimidin-5-yl]-N-ethoxy-N-propyl-3H-1-benzazepine-4-carboxamide], for which the EC50 at human TLR7 turned out to be 525 nM; on human TLR8, 17 nM.
Take `CCCN(OCCNC(=O)N(C)C)C(=O)C1=Cc2ccc(-c3cnc(CN)nc3)cc2N=C(N)C1` [HxBz-20]: the EC50 was 2940 nM on human TLR7 and 3690 nM at human TLR8.
On to `CCCN(OCC)C(=O)C1=Cc2ccc(-c3ccc(CN)nc3)cc2N=C(N)C1` [HxBz-36, 2-amino-8-[6-(aminomethyl)-3-pyridyl]-N-ethoxy-N-propyl-3H-1-benzazepine-4-carboxamide], for which the EC50 on human TLR7 was found to be 439 nM; on human TLR8, 54 nM.
On the same counts, the results for `CCCN(OCCNC(=O)OC1CCC1)C(=O)C1=Cc2ccc(-c3cnc(CN)nc3)cc2N=C(N)C1` [HxBz-15, cyclobutyl N-[2-[[2-amino-8-[2-(aminomethyl)pyrimidin-5-yl]-3H-1-benzazepine-4-carbonyl]-propyl-amino]oxyethyl]carbamate] are 35 nM and 10 nM.
Take `CCCN(OCCNC(=O)N1CCOCC1)C(=O)C1=Cc2ccc(-c3cnc(CN)nc3)cc2N=C(N)C1` [HxBz-23]: the EC50 on human TLR7 was found to be 6880 nM; on human TLR8, 6180 nM.
For `CCCN(OCCNC(=O)OC(C)C)C(=O)C1=Cc2ccc(-c3cncc(S(=O)(=O)N4CC(CN)C4)c3)cc2N=C(N)C1` [HxBz-35], in that order: 684 nM and 174 nM.
As for `CCCN(OCC)C(=O)C1=Cc2ccc(-c3cncc(CN)c3)cc2N=C(N)C1` [HxBz-39, 2-amino-8-(5-(aminomethyl)pyridin-3-yl)-N-ethoxy-N-propyl-3H-benzo[b]azepine-4-carboxamide], the EC50 was determined as 1780 nM on human TLR7 and 65 nM on human TLR8.

The EC50 is the concentration giving half of the maximal effect.
